Blank lines part the entries; values can stand above or below the molecule they belong to.
Columns and labels:
[1] = target: T1, Pol IV (E. coli DNA polymerase IV, DinB) (Escherichia coli, UniProt Q47155, T120P); experiment: pre-steady-state single-nucleotide primer extension, […] gel assay; assay type: biochemical; details: apparent Kd for dNTP, kpol given as kcat, 200 nM DNA, 400 nM polymerase, 10 mM MgCl2, pH 7.5, 25°C
T1 construct: full-length, untagged as far as told, pET11a plasmid pRM112 (T7 promoter) and mutant derivatives, purified from E. coli; 351 residues

[2] = target: T2, Pol IV (E. coli DNA polymerase IV, DinB) (Escherichia coli, UniProt Q47155); experiment: as above; assay type: biochemical; details: apparent Kd for dNTP, kpol given as kcat, 200 nM DNA, 400 nM polymerase, 10 mM MgCl2, pH 7.5, 25°C
T2 construct: full-length, untagged as far as told, pET11a plasmid pRM112 (T7 promoter) and mutant derivatives, purified from E. coli; 351 residues
T2 sequence (Q47155 1-351): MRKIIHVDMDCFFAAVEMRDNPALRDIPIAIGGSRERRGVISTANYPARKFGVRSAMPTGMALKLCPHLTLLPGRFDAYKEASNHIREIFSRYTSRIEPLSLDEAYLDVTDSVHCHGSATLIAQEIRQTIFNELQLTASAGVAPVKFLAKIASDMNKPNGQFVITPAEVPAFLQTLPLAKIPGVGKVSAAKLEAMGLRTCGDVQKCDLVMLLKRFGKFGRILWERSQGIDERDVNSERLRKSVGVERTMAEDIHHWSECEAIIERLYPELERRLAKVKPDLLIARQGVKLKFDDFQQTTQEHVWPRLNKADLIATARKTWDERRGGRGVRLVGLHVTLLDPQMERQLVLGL

[3] = target: Pol III core complex (Pol IIIαεθ) (E. coli) (UniProt P10443)
[4] = undamaged template 13/20G (opposite dG)
[5] = undamaged template 13/20A (opposite dA)

T1 sequence (Q47155 whole entry T120P): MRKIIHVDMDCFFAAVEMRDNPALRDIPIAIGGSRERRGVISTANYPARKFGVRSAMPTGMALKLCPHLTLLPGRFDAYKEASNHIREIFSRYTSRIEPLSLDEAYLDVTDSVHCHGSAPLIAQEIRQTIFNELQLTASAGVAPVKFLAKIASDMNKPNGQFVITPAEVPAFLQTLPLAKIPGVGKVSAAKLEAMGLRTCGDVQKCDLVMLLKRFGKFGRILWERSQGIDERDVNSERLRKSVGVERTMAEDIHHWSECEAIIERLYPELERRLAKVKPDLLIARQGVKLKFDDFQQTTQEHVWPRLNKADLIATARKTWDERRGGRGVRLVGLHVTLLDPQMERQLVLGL

- Kd ([1]; template 13/20Sp (opposite abasic site), above highest dNTP tested (500 μM range)): 460 ± 230 µM
Molecule: Nc1ncnc2c1ncn2[C@H]1C[C@H](O)[C@@H](COP(=O)(O)OP(=O)(O)OP(=O)(O)O)O1 [dATP]

- Pol III processivity in the single-molecule primer extension assay; 900 nM Pol IV^CD (180-fold molar excess) with 5 nM Pol IIIαεθ, β clamp and τ3δδ'ψχ clamp loader (of the processivity without Pol IV^CD) [3]: 0.5
B1: Pol IV catalytic domain (Pol IV^CD; residues 1–230) (domain or fragment)
chain: MRKIIHVDMDCFFAAVEMRDNPALRDIPIAIGGSRERRGVISTANYPARKFGVRSAMPTGMALKLCPHLTLLPGRFDAYKEASNHIREIFSRYTSRIEPLSLDEAYLDVTDSVHCHGSATLIAQEIRQTIFNELQLTASAGVAPVKFLAKIASDMNKPNGQFVITPAEVPAFLQTLPLAKIPGVGKVSAAKLEAMGLRTCGDVQKCDLVMLLKRFGKFGRILWERSQGID

Second part, the molecule before the results:

Molecule: Nc1ccn([C@H]2C[C@H](O)[C@@H](COP(=O)(O)OP(=O)(O)OP(=O)(O)O)O2)c(=O)n1 [dCTP]
- Kd [2, 4]: > 300 µM
- Kd [1, 4]: 14 ± 3.3 µM

Molecule: Cc1cn([C@H]2C[C@H](O)[C@@H](COP(=O)(O)OP(=O)(O)OP(=O)(O)O)O2)c(=O)[nH]c1=O [dTTP]
- Kd [2, 5]: 207 ± 21 µM
- Kd [1, 5]: 39 ± 9 µM

— article PMC4564189, “A Genetic Selection for dinB Mutants Reveals an Interaction between DNA Polymerase IV and the Replicative Polymerase That Is Required for Translesion Synthesis” (PLoS Genetics, 2015)
